Data as given in patent US20210121376A1, “PEPTIDES ENCAPSULATED IN LECITHIN AND ALGINATE” (INFINITEC ACTIVOS, S.L., priority 2018, published 2021).
Peptide text beside a SMILES is read from it. * marks the point of attachment. Palmitoyl = CCCCCCCCCCCCCCCC(=O)*; X1 = NCOCCOCCOCCCN*

Legend:
[1] = target: T1, papain (Carica papaya, UniProt P00784); assay: Peptide degradation by proteases (Example 8a, PP-4 peptide); format: in vitro ADME
T1 sequence (P00784 134-345): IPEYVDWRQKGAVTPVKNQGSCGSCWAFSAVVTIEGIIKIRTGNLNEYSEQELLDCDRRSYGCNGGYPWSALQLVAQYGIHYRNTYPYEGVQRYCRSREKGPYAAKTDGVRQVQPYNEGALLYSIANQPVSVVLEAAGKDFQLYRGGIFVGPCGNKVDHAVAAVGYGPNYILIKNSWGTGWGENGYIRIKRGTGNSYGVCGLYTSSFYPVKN
Procedure: a) 5 mg of each of the formulations of Example 1b and Comparative example 6b were incubated at 40° C. with 20 mg of papain. Samples were taken at study times 0 h, 0.3 h, 0.6 h, and 5 h after the addition of papain, centrifuged at 1400 rpm for 1 min, and the supernatant was filtered using a 0.45 μm filter and analyzed by HPLC.
(§1) HPLC analysis was carried out in a Waters 996 instrument with a diode array detector equipped with Waters 2695 separations module and Millenium software; an Xbridge BEH130 C18 4.6×100 mm 3.5 μm reversed phase column by Waters was used. UV detection was performed at 220 nm and a mobile phase B gradient of 5 to 100% was performed for 8 minutes at 1.0 ml/min of flow. Under these conditions, the retention time of the peptide of formula (I) wherein R is palmitoyl (Matrixyl®, PP-4) is 6.4 min. Mobile phase A: 0.045% TFA/H2O, mobile phase B: 0.036% TFA/acetonitrile.

[2] = target: T1, papain; assay: Peptide degradation by proteases (Example 8b, PH-26 peptide); format: in vitro ADME
Procedure: b) 20 mg of papain were added to the formulation of Comparative example 6c, and 1.5 mg of papain were added to a solution of 40 mg of the formulation of Example 1c in 1.0 mL of PBS buffer. Both samples were incubated at 40° C. Aliquots were taken at study times 0 h, 0.17 h, 0.3 h and 24 h, after the addition of papain, centrifuged at 1400 rpm for 1 min, and the supernatant was filtered using a 0.45 μm filter and analyzed by HPLC.
as §1

CCCCCCCCCCCCCCCC(=O)N[C@@H](CCCCN)C(=O)N[C@H](C(=O)N[C@H](C(=O)N[C@@H](CCCCN)C(=O)N[C@@H](CO)C(=O)O)[C@@H](C)O)[C@@H](C)O [PP-4, Palm-L-Lys-L-Thr-L-Thr-L-Lys-L-Ser-OH] (Palmitoyl-KTTKS-OH)
degradation with papain (in words) [1]: completely degraded

CCCCCCCCCCCCCCCC(=O)N[C@@H](CCCCN)C(=O)N[C@@H](C)C(=O)N[C@@H](CCC(N)=O)C(=O)N[C@@H](CCCCN)C(=O)N[C@@H](CCCNC(=N)N)C(=O)N[C@@H](Cc1ccccc1)C(=O)NCCCOCCOCCOCN [PH-26 peptide, R1-L-Lys-L-Ala-L-Gln-L-Lys-L-Arg-L-Phe-NH—(CH2)3—O—(CH2)2—O—(CH2)2—O—(CH2)—NH2] (Palmitoyl-KAQKRF-X1; N-terminus and C-terminus assumed)
degradation with papain (in words) [2]: nearly completely degraded
